Results reported in PubChem BioAssay (NCI).
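All cell lines were grown in 96-well plates and treated with compound for 48 hours. TGI: total growth inhibition.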

Assays:
Experiment in all cases: DTP human tumour cell line panel, 48 h
[1] = system: M14 melanoma
[2] = system: NCI/ADR-RES ovarian
[3] = system: EKVX NSCLC
[4] = system: UACC-257 melanoma
[5] = system: CAKI-1 renal
[6] = system: OVCAR-4 ovarian
[7] = system: MCF7 breast
[8] = system: NCI-H226 lung
[9] = system: DU-145 prostate
[10] = system: OVCAR-8 ovarian
[11] = system: UACC-62 melanoma
[12] = system: A498 renal
[13] = system: T-47D breast
[14] = system: MDA-N
[15] = system: MALME-3M melanoma
[16] = system: COLO 205 colon
[17] = system: SK-MEL-5 melanoma
[18] = system: OVCAR-3 ovarian
[19] = system: 786-0 renal
[20] = system: HCT-15 colon
[21] = system: K-562 leukemia
[22] = system: IGROV1 ovarian
[23] = system: SK-OV-3 ovarian
[24] = system: HCT-116 colon
[25] = system: NCI-H522 lung
[26] = system: CCRF-CEM leukemia
[27] = system: ACHN renal
[28] = system: HOP-62 NSCLC
[29] = system: HOP-92 NSCLC
[30] = system: SF-268 CNS
[31] = system: SW-620 colon
[32] = system: RXF 393 renal
[33] = system: BT-549 breast
[34] = system: SR leukemia
[35] = system: UO-31 renal
[36] = system: MDA-MB-435
[37] = system: A549 NSCLC
[38] = system: RPMI-8226 leukemia
[39] = system: HS 578T breast
[40] = system: HL-60(TB) leukemia
[41] = system: SNB-75 CNS
[42] = system: HCC-2998 colon
[43] = system: HT29 colon
[44] = system: SNB-19 CNS
[45] = system: MOLT-4 leukemia
[46] = system: SN12C renal
[47] = system: SF-295 CNS
[48] = system: TK-10 renal
[49] = system: OVCAR-5 ovarian
[50] = system: SF-539 CNS
[51] = system: SK-MEL-28 melanoma
[52] = system: SK-MEL-2 melanoma
[53] = system: NCI-H460 lung
[54] = system: NCI-H23 lung
[55] = system: KM12 colon
[56] = system: LOX IMVI melanoma
[57] = system: PC-3 prostate

## O=[N+]([O-])c1cccc(-c2ccc([C@H]3CC(c4ccc(Cl)cc4)=NN3)o2)c1
[1]
  TGI: > 100 µM
[2]
  TGI: 76.3 µM
[3]
  TGI: > 100 µM
[4]
  TGI: 83.9 µM
[5]
  TGI: 60.5 µM
[6]
  TGI: 68.6 µM
[7]
  TGI: > 100 µM
[8]
  TGI: 45.8 µM
[9]
  TGI: 50.1 µM
[10]
  TGI: 27.4 µM
[11]
  TGI: 49.1 µM
[12]
  TGI: 88.2 µM
[13]
  TGI: 41.7 µM
[14]
  TGI: 66.7 µM
[15]
  TGI: 71.6 µM
[16]
  TGI: > 100 µM
[17]
  TGI: 32.2 µM
[18]
  TGI: 43.3 µM
[19]
  TGI: 28.5 µM
[20]
  TGI: 40.3 µM
[21]
  TGI: 55 µM
[22]
  TGI: > 100 µM
[23]
  TGI: 54.5 µM
[24]
  TGI: 31.2 µM
[25]
  TGI: 59.1 µM
[26]
  TGI: 90.8 µM
[27]
  TGI: 34.4 µM
[28]
  TGI: 57.9 µM
[29]
  TGI: 67.6 µM
[30]
  TGI: > 100 µM
[31]
  TGI: > 100 µM
[32]
  TGI: 35.2 µM
[33]
  TGI: 74.9 µM
[34]
  TGI: 32.7 µM
[35]
  TGI: 40.9 µM
[36]
  TGI: 54.4 µM
[37]
  TGI: > 100 µM
[38]
  TGI: 45.6 µM
[39]
  TGI: > 100 µM
[40]
  TGI: 24.1 µM
[41]
  TGI: 48.4 µM
[42]
  TGI: 38.1 µM
[43]
  TGI: 56.9 µM
[44]
  TGI: 89.7 µM
[45]
  TGI: 29.1 µM
[46]
  TGI: 53.4 µM
[47]
  TGI: 88.5 µM
[48]
  TGI: 42.8 µM
[49]
  TGI: > 100 µM

## CSc1ccc(/C=C2\N=C(c3ccccc3)N(NC(=O)c3c(Cl)c(Cl)c(Cl)c(Cl)c3-c3nc4ccccc4[nH]3)C2=O)cc1
[1]
  TGI: > 100 µM
[2]
  TGI: > 100 µM
[3]
  TGI: > 100 µM
[4]
  TGI: > 100 µM
[5]
  TGI: 85.3 µM
[50]
  TGI: > 100 µM
[7]
  TGI: > 100 µM
[8]
  TGI: > 100 µM
[9]
  TGI: > 100 µM
[10]
  TGI: > 100 µM
[11]
  TGI: 59 µM
[12]
  TGI: 80.3 µM
[13]
  TGI: 25.6 µM
[14]
  TGI: > 100 µM
[15]
  TGI: > 100 µM
[16]
  TGI: 95.9 µM
[17]
  TGI: > 100 µM
[18]
  TGI: > 100 µM
[19]
  TGI: > 100 µM
[20]
  TGI: > 100 µM
[51]
  TGI: > 100 µM
[52]
  TGI: > 100 µM
[21]
  TGI: 66.4 µM
[22]
  TGI: > 100 µM
[53]
  TGI: 28 µM
[23]
  TGI: > 100 µM
[24]
  TGI: 83.3 µM
[54]
  TGI: 83 µM
[25]
  TGI: > 100 µM
[26]
  TGI: > 100 µM
[27]
  TGI: > 100 µM
[28]
  TGI: > 100 µM
[55]
  TGI: 65.6 µM
[29]
  TGI: 52.2 µM
[30]
  TGI: > 100 µM
[56]
  TGI: > 100 µM
[31]
  TGI: > 100 µM
[57]
  TGI: > 100 µM
[33]
  TGI: > 100 µM
[34]
  TGI: > 100 µM
[35]
  TGI: > 100 µM
[36]
  TGI: 19.7 µM
[37]
  TGI: > 100 µM
[39]
  TGI: > 100 µM
[40]
  TGI: 61 µM
[41]
  TGI: 46.6 µM
[42]
  TGI: 39.3 µM
[43]
  TGI: > 100 µM
[44]
  TGI: > 100 µM
[45]
  TGI: 77.3 µM
[46]
  TGI: > 100 µM
[47]
  TGI: > 100 µM
[49]
  TGI: > 100 µM
